Molecular target: T1, TvFAP40 (Trichomonas vaginalis, UniProt A2DSS2)
T1 construct: gene TVAG_347810; native full-length protein in doublet microtubules isolated from parasite flagella; C-terminal residue Tyr377; head domain 1-145, coiled-coil tail 149-361; ligand in head domain
T1 sequence (A2DSS2 1-377): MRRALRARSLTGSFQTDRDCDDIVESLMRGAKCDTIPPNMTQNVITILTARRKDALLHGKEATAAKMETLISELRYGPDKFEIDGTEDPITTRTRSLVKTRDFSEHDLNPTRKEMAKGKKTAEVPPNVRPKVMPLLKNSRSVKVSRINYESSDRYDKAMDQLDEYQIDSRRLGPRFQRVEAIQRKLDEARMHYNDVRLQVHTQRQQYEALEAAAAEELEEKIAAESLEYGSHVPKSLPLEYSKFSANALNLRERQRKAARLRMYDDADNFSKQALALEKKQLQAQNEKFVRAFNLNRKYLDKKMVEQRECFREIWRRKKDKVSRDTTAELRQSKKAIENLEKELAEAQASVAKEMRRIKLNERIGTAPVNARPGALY
Assay: cryo-EM structure of native doublet microtubules
Assay type: binding
Conditions: co-purified endogenous ligand, putatively assigned from map density; positively charged pocket of head domain; likely metal cation nearby
Excerpt: cryo-EM structure of native doublet microtubules on TvFAP40 | consistent with bonding to a non-planar six-membered ring.

## O=P(O)(O)O[C@H]1[C@H](OP(=O)(O)O)[C@@H](OP(=O)(O)O)[C@H](OP(=O)(O)O)[C@@H](OP(=O)(O)O)[C@H]1OP(=O)(O)O [IP6]
  cryo-EM structure of native doublet microtubules: consistent with bonding to a non-planar six-membered ring. Together these features suggested an inositol polyphosphate
